Assay results as given in patent US7566786B2, “Quinoline derivatives as phosphodiesterase inhibitors” (Glaxo Group Limited, priority 2003, dated 2009).
Counter-ions that a name gives are not always drawn.

Legend:
[1] = molecular target: PDE5 (human recombinant) (Homo sapiens, UniProt O76074); experiment: Inhibition of PDE5 activity: Radioactive Scintillation Proximity Assay (SPA); type: biochemical; conditions: read-out: PDE5 mean pIC50 (converted)
Source text: Human recombinant PDE5 is disclosed in K. Loughney et al., “Isolation and characterisation of cDNAs encoding PDE5A, a human cGMP-binding, cGMP-specific 3′,5′-cyclic nucleotide phosphodiesterase”, Gene, 1998, 216, 139-147.
(§1) 2. Inhibition of PDE3, PDE4B, PDE4D, PDE5 or PDE6 Activity: Radioactive Scintillation Proximity Assay (SPA)
(§2) The ability of compounds to inhibit catalytic activity at PDE4B or 4D (human recombinant), PDE3 (from bovine aorta), PDE5 (human recombinant) or PDE 6 (from bovine retina) was determined by Scintillation Proximity Assay (SPA) in 96-well format. Test compounds (preferably as a solution in DMSO, e.g. 2 microlitre (μl) volume) were preincubated at ambient temperature in Wallac Isoplates (code 1450-514) with PDE enzyme in 50 mM Tris-HCl buffer pH 7.5, 8.3 mM MgCl2, 1.7 mM EGTA, 0.05% (w/v) bovine serum albumin for 10-30 minutes. The enzyme concentration was adjusted so that no more than 20% hydrolysis of the substrate occurred in control wells without compound, during the incubation. For the PDE3, PDE4B and PDE4D assays [5′,8-^3H]adenosine 3′,5′-cyclic phosphate (Amersham Pharmacia Biotech, code TRK.559 or Amersham Biosciences UK Ltd, Pollards Wood, Chalfont St Giles, Buckinghamshire HP8 4SP, UK) was added to give 0.05 μCi per well and ˜10 nM final concentration. For the PDE5 and PDE6 assays [8-^3H]guanosine 3′,5′-cyclic phosphate (Amersham Pharmacia Biotech , code TRK.392) was added to give 0.05 μCi per well and ˜36 nM final concentration. Plates e.g. containing approx. 100 μl volume of assay mixture were mixed on an orbital shaker for 5 minutes and incubated at ambient temperature for 1 hour. Phosphodiesterase SPA beads (Amersham Pharmacia Biotech, code RPNQ 0150) suspended in buffer were added (˜1 mg per well) to terminate the assay. Plates were sealed and shaken and allowed to stand at ambient temperature for 35 minutes to 1 hour to allow the beads to settle. Bound radioactive product was measured using a WALLAC TRILUX 1450 Microbeta scintillation counter. […] Curves were analysed using
(§3) ActivityBase and XLfit (ID Business Solutions Limited, 2 Ocean Court, Surrey Research Park, Guildford, Surrey GU2 7QB, United Kingdom). Results were expressed as pIC50 values.

[2] = molecular target: T1, PDE4B (human recombinant) (Homo sapiens, UniProt Q07343); experiment: Inhibition of PDE4B activity: Radioactive Scintillation Proximity Assay (SPA); type: biochemical; conditions: SPA or FP format not given; for IC50: read-out: PDE4B mean pIC50 (converted)
T1 construct: made in house
T1 sequence (Q07343 1-564 isoform Q07343-2): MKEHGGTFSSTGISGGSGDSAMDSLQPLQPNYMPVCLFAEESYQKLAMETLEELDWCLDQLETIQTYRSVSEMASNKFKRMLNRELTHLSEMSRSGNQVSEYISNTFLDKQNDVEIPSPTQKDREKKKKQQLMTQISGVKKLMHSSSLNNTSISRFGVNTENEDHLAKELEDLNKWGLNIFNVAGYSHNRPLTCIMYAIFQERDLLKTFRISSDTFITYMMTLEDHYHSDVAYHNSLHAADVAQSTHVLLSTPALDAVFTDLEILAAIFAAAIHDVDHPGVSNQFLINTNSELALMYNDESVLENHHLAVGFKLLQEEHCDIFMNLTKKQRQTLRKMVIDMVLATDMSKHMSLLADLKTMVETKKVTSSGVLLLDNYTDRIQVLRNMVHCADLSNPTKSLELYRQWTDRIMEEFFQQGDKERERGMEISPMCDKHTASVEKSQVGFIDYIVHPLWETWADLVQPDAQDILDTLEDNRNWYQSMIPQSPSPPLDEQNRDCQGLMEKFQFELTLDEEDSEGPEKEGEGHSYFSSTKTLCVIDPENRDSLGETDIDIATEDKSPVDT
Source text: Human recombinant PDE4B, in particular the 2B splice variant thereof (HSPDE4B2B), is disclosed in WO 94/20079 and also in M. M. McLaughlin et al., “A low Km, rolipram-sensitive, cAMP-specific phosphodiesterase from human brain: cloning and expression of cDNA, biochemical characterisation of recombinant protein, and tissue distribution of mRNA”, J. Biol. Chem., 1993, 268, 6470-6476. For example, in Example 1 of WO 94/20079, human recombinant PDE4B is described as being expressed in the PDE-deficient yeast Saccharomyces cerevisiae strain GL62, e.g. after induction by addition of 150 μM CuSO4, and 100,000×g supernatant fractions of yeast cell lysates are described for use in the harvesting of PDE4B enzyme.
as §1, §2, §3

Structure (SMILES) | IC50 [1] | IC50 [2] | PDE4B mean pIC50 [2]
COc1cccc(Nc2c(C(N)=O)cnc3ccc(S(C)(=O)=O)cc23)c1 [Example 27, 4-{[3-(methyloxy)phenyl]amino}-6-(methylsulfonyl)-3-quinolinecarboxamide] | 15800 nM | – | –
CN(C)c1cccc(Nc2c(C(N)=O)cnc3ccc(S(=O)(=O)C4CCCC4)cc23)c1 [Example 92] | > 31600 nM | 20 nM | –
COc1ccc(S(=O)(=O)c2cc(C)c3ncc(C(N)=O)c(Nc4cccc(OC)c4)c3c2)cc1 [Example 265, 8-methyl-4-{[3-(methyloxy)phenyl]amino}-6-{[4-(methyloxy)phenyl]sulfonyl}-3-quinolinecarboxamide] | 6310 nM | 0.00501 nM | –
Cc1cc(S(C)(=O)=O)cc2c(Nc3cccc4c3CCO4)c(C(N)=O)cnc12 [Example 307, 4-(2,3-dihydro-1-benzofuran-4-ylamino)-8-methyl-6-(methylsulfonyl)-3-quinolinecarboxamide] | > 25100 nM | 0.0316 nM | –
Cc1cc(S(C)(=O)=O)cc2c(Nc3ccc4cnn(C)c4c3)c(C(N)=O)cnc12 [Example 309, 8-methyl-4-[(1-methyl-1H-indazol-6-yl)amino]-6-(methylsulfonyl)-3-quinolinecarboxamide] | > 12600 nM | 0.0794 nM | –
Cc1cc(S(C)(=O)=O)cc2c(Nc3cccc(C#N)c3)c(C(N)=O)cnc12 [Example 312, 4-[(3-cyanophenyl)amino]-8-methyl-6-(methylsulfonyl)-3-quinolinecarboxamide] | > 31600 nM | – | 9.4
Cc1cccc(Nc2c(C(N)=O)cnc3c(Cl)cc(S(C)(=O)=O)cc23)c1 [Example 369, 8-chloro-4-[(3-methylphenyl)amino]-6-(methylsulfonyl)-3-quinolinecarboxamide] | 7940 nM | 0.316 nM | –
COc1cccc(Nc2c(C(N)=O)cnc3c(C)cc(S(=O)(=O)c4ccc(OC)c(OC)c4)cc23)c1 [Example 380, 6-{[3,4-bis(methyloxy)phenyl]sulfonyl}-8-methyl-4-{[3-(methyloxy)phenyl]amino}-3-quinolinecarboxamide] | > 100 nM | 0.00398 nM | –
COc1cccc(Nc2c(C(N)=O)cnc3c(C)cc(S(=O)(=O)c4cccc(C(=O)N(C)C)c4)cc23)c1 [Example 399, 6-({3-[(dimethylamino)carbonyl]phenyl}sulfonyl)-8-methyl-4-{[3-(methyloxy)phenyl]amino}-3-quinolinecarboxamide] | 2510 nM | < 0.00251 nM | –
COc1cccc(Nc2c(C(N)=O)cnc3ccc(S(=O)(=O)c4cccc(C(=O)N(C)C)c4)cc23)c1 [Example 400, 6-({3-[(dimethylamino)carbonyl]phenyl}sulfonyl)-4-{[3-(methyloxy)phenyl]amino}-3-quinolinecarboxamide] | > 10000 nM | 0.01 nM | –
Cc1cc(S(=O)(=O)c2cccc(C(=O)N(C)C)c2)cc2c(Nc3cccc(C#N)c3)c(C(N)=O)cnc12 [Example 408, 4-[(3-cyanophenyl)amino]-6-({3-[(dimethylamino)carbonyl]phenyl}sulfonyl)-8-methyl-3-quinolinecarboxamide] | – | 0.00398 nM | –
Cc1cc(S(=O)(=O)C2CCN(C(=O)c3ccco3)CC2)cc2c(Nc3cccc4c3CCO4)c(C(N)=O)cnc12 [Example 446, 4-(2,3-dihydro-1-benzofuran-4-ylamino)-6-{[1-(2-furanylcarbonyl)-4-piperidinyl]sulfonyl}-8-methyl-3-quinolinecarboxamide] | > 31600 nM | 0.00501 nM | –
Cc1cc(S(=O)(=O)CCNS(C)(=O)=O)cc2c(Nc3cccc4c3CCO4)c(C(N)=O)cnc12 [Example 457, 4-(2,3-dihydro-1-benzofuran-4-ylamino)-8-methyl-6-({2-[(methylsulfonyl)amino]ethyl}sulfonyl)-3-quinolinecarboxamide] | > 3160 nM | 0.01 nM | –
Cc1cc(S(C)(=O)=O)cc2c(Nc3cc(F)cc(F)c3)c(C(N)=O)cnc12 [Example 502, 4-[(3,5-difluorophenyl)amino]-8-methyl-6-(methylsulfonyl)-3-quinolinecarboxamide] | > 10000 nM | 1.26 nM | –
COc1cccc(Nc2c(C(N)=O)cnc3c(C)cc(S(=O)(=O)c4cncc(C(=O)N(C)C)c4)cc23)c1 [Example 546, 6-({5-[(dimethylamino)carbonyl]-3-pyridinyl}sulfonyl)-8-methyl-4-{[3-(methyloxy)phenyl]amino}3-quinolinecarboxamide hydrochloride] | 20000 nM | 0.02 nM | –
